Measured values as given in publication PMC7615501 (Journal of immunology (Baltimore, Md. : 1950), 2021).

What was measured:
CD8+ T cell clone 6C5 [1] = test: Activation of clone 6C5 by peptide-pulsed T2 cells, MIP-1β ELISA; assay type: cell-based, human; details: high purity (>95%) peptide preparations
CD8+ T cell clone 6C5 [2] = details: earlier work; cited from earlier work
HLA-A*0201 = HLA-A*0201 (Homo sapiens, UniProt P04439, D140Y/D185E/D98H/E176V/E277Q/G131W/G231S/I119V/I121R/I166T/I218V/L300P/L318F/N151K/N90K/P208A/P217A/Q86G/Q94H/R138H/R169H/T345S); details: earlier work; cited from earlier work

| Substance | Functional response of clone 6C5, retest with high purity preparations (CD8+ T cell clone 6C5 [1]) | Recognition by CD8+ T cell clone 6C5 (CD8+ T cell clone 6C5 [2]) | Binding to HLA-A*0201 (HLA-A*0201) |
| --- | --- | --- | --- |
| FMAYFGVSA | inert | – | – |
| LLSY(3-tBu)FGTPT | – | recognize | bound poorly to HLA-A*0201 |
| LTAYMLLAI | inert | – | – |
